The source made the active and inactive calls. No cut-off for these calls is given here. Where a SMILES comes first, the peptide text is derived from it.
Columns and labels:
[1] = Drug localization in cytoplasm of Mycobacterium smegmatis at 1 ug/ml by confocal microscopy; format: ADME, subcellular; settings: mycolicibacterium smegmatis; dose 1 µg/ml
[2] = Drug localization in cell membrane of Escherichia coli ATCC 25922 at 3 times MIC by confocal microscopy; format: ADME, cell membranes
[3] = tested on: Mycolicibacterium smegmatis; experiment: Antitubercular activity against Mycobacterium smegmatis incubated for 24 hrs by rezasurin dye based assay; format: functional
[4] = Toxicity in BALB/c mouse infected with Escherichia coli ATCC 25922 assessed as animal survival at 2.5 mg/kg, iv administered thrice at 1,3 and 5 hrs post-infection measured after 7 days; format: organism-based; settings: in vivo, 168 h, time 7 day
Escherichia coli [5] = experiment: Antibacterial activity against Escherichia coli ATCC 25922 incubated for 16 to 18 hrs in presence of 10 percent human serum by broth dilution assay; format: functional; settings: time 16-18 hrs
Klebsiella pneumoniae = experiment: Antibacterial activity against Klebsiella pneumoniae ATCC 27736 incubated for 16 to 18 hrs by broth dilution assay; format: functional; settings: time 16-18 hrs
Escherichia coli [6] = experiment: Bactericidal activity against Escherichia coli ATCC 25922 incubated for 16 to 18 hrs; format: functional; settings: time 16-18 hrs
[7] = Toxicity in BALB/c mouse assessed as change in ALT level at 15 mg/kg, iv administered thrice at 2 hrs interval measured after 7 days; format: organism-based; settings: in vivo, 168 h, time 7 day
Escherichia coli [8] = experiment: Antibacterial activity against Escherichia coli ATCC 25922 infected in BALB/c mouse assessed as bacterial count in spleen at 5 mg/kg, iv administered thrice at 1,3 and 5 hrs post-infection measured after 24 hrs post-last dose (Rvb ~ 1.9 x10^7 CFU/mL); format: functional; settings: time 29 hrs
Escherichia coli [9] = experiment: Disruption of membrane integrity in Escherichia coli ATCC 25922 by PI staining based analysis; format: functional, organism-based
[10] = Toxicity in BALB/c mouse assessed as change in AST level at 15 mg/kg, iv administered thrice at 2 hrs interval measured after 7 days; format: organism-based; settings: in vivo, 168 h, time 7 day
Escherichia coli [11] = experiment: Bactericidal activity against Escherichia coli ATCC 25922 at MIC incubated for 30 mins by time kill assay; format: functional, organism-based
Escherichia coli [12] = experiment: Bactericidal activity against Escherichia coli ATCC 25922 at MIC incubated for 45 mins by time kill assay; format: functional, organism-based
[13] = Toxicity in BALB/c mouse assessed as animal survival at 15 mg/kg, iv administered thrice at 2 hrs interval measured after 7 days; format: organism-based; settings: in vivo, 168 h, time 7 day
[14] = Toxicity in BALB/c mouse infected with Escherichia coli ATCC 25922 assessed as animal survival at 5 mg/kg, iv administered thrice at 1,3 and 5 hrs post-infection measured after 7 days; format: organism-based; settings: in vivo, 168 h, time 7 day
Staphylococcus aureus [15] = experiment: Disruption of membrane integrity in Staphylococcus aureus ATCC 25923 by PI staining based analysis; format: functional, organism-based
Staphylococcus aureus [16] = experiment: Antibacterial activity against methicillin-resistant Staphylococcus aureus 33591 incubated for 16 to 18 hrs by broth dilution assay; format: functional; settings: time 16-18 hrs
[17] = Hemolytic activity in human RBC assessed as disruption of membrane integrity by Alexa Fluor-Annexin V staining based analysis; format: toxicity, cell-based; settings: erythrocyte
Escherichia coli [18] = experiment: Antibacterial activity against Escherichia coli ATCC 25922 infected in BALB/c mouse assessed as bacterial count in blood at 5 mg/kg, iv administered thrice at 1,3 and 5 hrs post-infection measured after 24 hrs post-last dose (Rvb ~ 9.6 x10^6 CFU/mL); format: functional; settings: time 29 hrs
Staphylococcus aureus [19] = experiment: Antibacterial activity against Staphylococcus aureus ATCC 25923 incubated for 16 to 18 hrs in presence of 10 percent human serum by broth dilution assay; format: functional; settings: time 16-18 hrs
Staphylococcus aureus [20] = experiment: Antibacterial activity against methicillin-resistant Staphylococcus aureus BAA-44 incubated for 16 to 18 hrs by broth dilution assay; format: functional; settings: time 16-18 hrs
Staphylococcus aureus [21] = experiment: Disruption of plasma membrane integrity in Staphylococcus aureus ATCC 25923 by SYTOX-Green uptake assay; format: functional, organism-based
Pseudomonas aeruginosa = experiment: Antibacterial activity against Pseudomonas aeruginosa ATCC BAA-427 incubated for 16 to 18 hrs by broth dilution assay; format: functional; settings: time 16-18 hrs
Escherichia coli [22] = experiment: Disruption of plasma membrane integrity in Escherichia coli ATCC 25922 by SYTOX-Green uptake assay; format: functional, organism-based
Escherichia coli [23] = experiment: Antibacterial activity against Escherichia coli ATCC 25922 incubated for 16 to 18 hrs by broth dilution assay; format: functional; settings: time 16-18 hrs
[24] = Retention time of compound by RP-HPLC method; format: physicochemical
[25] = Hemolytic activity in human RBC measured after 40 mins by absorbance based assay; format: toxicity, cell-based, Erythrocyte; settings: human red blood cells
[26] = (§1) Cytotoxicity against mouse 3T3-L1 cells assessed as cell viability at 100 uM incubated for 24 hrs by MTT assay relative to control; format: toxicity, cell-based; settings: 3T3-L1 cells, read-out: Activity
Escherichia coli [27] = experiment: Antibacterial activity against Escherichia coli ATCC 25922 infected in BALB/c mouse assessed as bacterial count in liver at 5 mg/kg, iv administered thrice at 1,3 and 5 hrs post-infection measured after 24 hrs post-last dose (Rvb ~ 2.3 x10^7 CFU/mL); format: functional; settings: time 29 hrs
Staphylococcus aureus [28] = experiment: Induction of membrane depolarization in Staphylococcus aureus ATCC 25923 by diSC3-5 dye based analysis; format: functional, organism-based
Escherichia coli [29] = experiment: Antibacterial activity against Escherichia coli ATCC 25922 infected in BALB/c mouse assessed as bacterial count in kidney at 5 mg/kg, iv administered thrice at 1,3 and 5 hrs post-infection measured after 24 hrs post-last dose (Rvb ~ 1.8 x10^7 CFU/mL); format: functional; settings: time 29 hrs
Bacillus subtilis = experiment: Antibacterial activity against Bacillus subtilis 6633 incubated for 16 to 18 hrs by broth dilution assay; format: functional; settings: time 16-18 hrs
Escherichia coli [30] = experiment: Induction of membrane depolarization in Escherichia coli ATCC 25922 by diSC3-5 dye based analysis; format: functional, organism-based
[31] = (§2) Cytotoxicity against rat L6 cells assessed as cell viability at 100 uM incubated for 24 hrs by MTT assay relative to control; format: toxicity, cell-based; settings: L6 cells, read-out: Activity
Staphylococcus aureus [32] = experiment: Antibacterial activity against Staphylococcus aureus ATCC 25923 incubated for 16 to 18 hrs by broth dilution assay; format: functional; settings: time 16-18 hrs
Staphylococcus aureus [33] = experiment: Bactericidal activity against Staphylococcus aureus ATCC 25923 incubated for 16 to 18 hrs; format: functional; settings: time 16-18 hrs
Escherichia coli [34] = experiment: Antibacterial activity against Escherichia coli ATCC 25922 infected in BALB/c mouse assessed as bacterial load in blood at 5 mg/kg, iv administered thrice at 1,3 and 5 hrs post-infection measured after 24 hrs post-last dose (Rvb ~ 4 x10^6 CFU/mL); format: functional; settings: time 29 hrs
Staphylococcus aureus [35] = experiment: Bactericidal activity against Staphylococcus aureus ATCC 25923 at MIC incubated for 45 mins by time kill assay; format: functional, organism-based
Escherichia coli [36] = experiment: Bactericidal activity against Escherichia coli ATCC 25922 at MIC incubated for 60 mins by time kill assay; format: functional, organism-based
[37] = Stability in 10 percent human serum assessed as compound remaining measured after 60 mins by RP-HPLC analysis; format: ADME, cell-free; settings: 10% human serum, read-out: Stability
[38] = Hemolytic activity in human RBC at 100 uM measured after 40 mins by absorbance based assay relative to control; format: toxicity, cell-based, Erythrocyte
Staphylococcus aureus [39] = experiment: Bactericidal activity against Staphylococcus aureus ATCC 25923 at MIC incubated for 60 mins by time kill assay; format: functional, organism-based
3T3-L1 = experiment: as §1; format: toxicity, cell-based; settings: 3t3-l1, 24 h, 100 µM
L6 = experiment: as §2; format: toxicity, cell-based; settings: l6, 24 h, 100 µM

Compound	MIC [3] [µM]	MIC (Escherichia coli [5]) [µM]	MIC (Klebsiella pneumoniae) [µM]	MBC (Escherichia coli [6]) [µM]	Activity (Escherichia coli [9])	Activity (Staphylococcus aureus [15])	MIC (Staphylococcus aureus [16]) [µM]	Activity [17]	MIC (Staphylococcus aureus [19]) [µM]	MIC (Staphylococcus aureus [20]) [µM]	Activity (Staphylococcus aureus [21])	MIC (Pseudomonas aeruginosa) [µM]	Activity (Escherichia coli [22])	MIC (Escherichia coli [23]) [µM]	Retention_time [24] [min]	HC50 at 40 min [25] [mM]	Activity (Staphylococcus aureus [28])	MIC (Bacillus subtilis) [µM]	Activity (Escherichia coli [30])	MIC (Staphylococcus aureus [32]) [µM]	other results
CC(C)C[C@H](NC(=O)[C@H](CCCNC(=N)N)NC(=O)CNC(=O)[C@@H](NC(=O)[C@H](CC(C)C)NC(=O)[C@H](CCCNC(=N)N)NC(=O)CNC(=O)[C@@H](NC(=O)[C@H](CC(C)C)NC(=O)[C@H](CCCNC(=N)N)NC(=O)CNC(=O)[C@@H](NC(=O)[C@H](CC(C)C)NC(=O)[C@H](CCCNC(=N)N)NC(=O)CNC(=O)c1cc(C(=O)O)ccc1-c1c2ccc(=[N+](C)C)cc-2oc2cc(N(C)C)ccc12)C(C)C)C(C)C)C(C)C)C(=O)N[C@H](C(=O)O)C(C)C.[Cl-] (HELM PEPTIDE1{[CN(C)c1ccc2c(-c3ccc(C(=O)O)cc3C(=O)[*:2])c3ccc(=[N+](C)C)cc-3oc2c1].G.R.L.V.G.R.L.V.G.R.L.V.G.R.L.V}$$$$V2.0)	–	–	–	–	–	–	–	–	–	–	–	–	–	–	–	–	–	–	–	–	Drug uptake [1]: Active; Drug uptake [2]: Active
CC(C)C[C@H](NC(=O)[C@@H](NC(=O)c1cc(C(=O)O)ccc1-c1c2ccc(=[N+](C)C)cc-2oc2cc(N(C)C)ccc12)C(C)C)C(=O)NCC(=O)N[C@@H](CCCNC(=N)N)C(=O)N[C@H](C(=O)N[C@@H](CC(C)C)C(=O)NCC(=O)N[C@@H](CCCNC(=N)N)C(=O)N[C@H](C(=O)N[C@@H](CC(C)C)C(=O)NCC(=O)N[C@@H](CCCNC(=N)N)C(=O)N[C@H](C(=O)N[C@@H](CC(C)C)C(=O)NCC(=O)N[C@@H](CCCNC(=N)N)C(=O)O)C(C)C)C(C)C)C(C)C.[Cl-] (HELM PEPTIDE1{[CN(C)c1ccc2c(-c3ccc(C(=O)O)cc3C(=O)[*:2])c3ccc(=[N+](C)C)cc-3oc2c1].V.L.G.R.V.L.G.R.V.L.G.R.V.L.G.R}$$$$V2.0)	–	–	–	–	–	–	–	–	–	–	–	–	–	–	–	–	–	–	–	–	Drug uptake [1]: Active; Drug uptake [2]: Active
H-KVLKVLKVLKVL-OH	> 10	2.2	4.5	2.2	Active	Active	9	Non-toxic	36.2	2.3	Active	9	Active	1.1	19.44	2	Active	9	Active	18.1	Survival [4]: 40%; Activity [7]: Non-toxic; Activity (Escherichia coli [8]): 7800 CFU/ml; Activity [10]: Non-toxic; Activity (Escherichia coli [11]): Active; Emerged As Swiftest Molecule; Activity (Escherichia coli [12]): Active; Activity [13]: Non-toxic; Survival [14]: 80%; Activity (Escherichia coli [18]): 2656 CFU/ml; viability at 24 h, 100 µM [26]: 75%; Activity (Escherichia coli [27]): 9100 CFU/ml; Activity (Escherichia coli [29]): 2.9 10^4CFU/ml; viability at 24 h, 100 µM [31]: 75%; MBC (Staphylococcus aureus [33]): 18.1 µM; Activity (Escherichia coli [34]): 3400 CFU/ml; Activity (Staphylococcus aureus [35]): Active
H-RLRLRLRLRL-OH	10	4.6	18.3	4.6	Active	Active	18.3	Non-toxic	9.2	18.3	Active	18.3	Active	2.3	15.27	1.82	Active	4.6	Active	4.6	Survival [4]: 20%; Activity (Escherichia coli [36]): Active; Exhibited Rapid Kinetics; Activity [7]: Non-toxic; Activity (Escherichia coli [8]): 6.8 10^4CFU/ml; Activity [10]: Non-toxic; remaining at 1 h [37]: 70%; Activity [13]: Toxic; Survival [14]: 80%; Activity (Escherichia coli [18]): 2.4 10^4CFU/ml; Activity ([38]; erythrocyte, 40 min, 100 µM): Non-toxic; Activity (Staphylococcus aureus [39]): Active; Exhibited Rapid Kinetics; Activity (3T3-L1): Toxic; Activity (Escherichia coli [27]): 2.7 10^4CFU/ml; Activity (Escherichia coli [29]): 2.6 10^4CFU/ml; Activity (L6): Toxic; MBC (Staphylococcus aureus [33]): 9.2 µM; Activity (Escherichia coli [34]): 7700 CFU/ml
H-RLVRLVRLVRLVRLV-OH	5	6.8	1.7	6.8	Active	Active	3.4	Non-toxic	3.4	1.7	Active	6.7	Active	1.7	20.78	0.232	Active	1.7	Active	1.7	Activity (Escherichia coli [36]): Active; Exhibited Rapid Kinetics; hemolysis at 40 min, 100 µM ([38]; human red blood cells, read-out: Activity): 20%; Activity (Staphylococcus aureus [39]): Active; Exhibited Rapid Kinetics; Activity (3T3-L1): Toxic; Activity (L6): Toxic; MBC (Staphylococcus aureus [33]): 3.4 µM

Reference: ChEMBL document CHEMBL6087460, “Generating a Peptide Library Using the Repeats of Amino Acid Scaffolds Created by Sliding the Framework of a 7-mer Human Chemerin Segment and Discovery of Potent Antibacterial and Antimycobacterial Peptides” (J Med Chem, 2025)
